{
  "source": "paper PMC9069406",
  "about": "(Acta Pharmaceutica Sinica. B, 2021)",
  "test_system": "4T1 (murine TNBC) cells",
  "experiment": "TNBC allograft model",
  "assay_type": "in vivo, mice",
  "conditions": "0.5 mg/kg i.p. daily, 18 days",
  "data": [
    {"smiles": "N.N.[Cl][Pt][Cl]", "note": "[cisplatin]", "values": [
      {"measurement": "reduction of average tumor weight at sacrifice", "value": 25.2, "unit": "%"}
    ]}
  ]
}
